Earlier results in patent US7939721B2, “Cropping systems for managing weeds” (Monsanto Technology LLC, priority 2006, dated 2011).
Like-named read-outs stand apart in the source and are kept apart here.

System: soybean plants transformed with dicamba monooxygenase (DMO)-encoding polynucleotide constructs
Details: cited from earlier work

In the case of COc1c(Cl)ccc(Cl)c1C(=O)O [dicamba, 3,6-dichloro-o-anisic acid], the injury (18× application rate of 10,080 g/ha (9 lb/acre)) is given as “less than 20%”, the injury (approximately 2× rate of application of 1122 g/ha) is given as “less than 2%” and the injury (early pre-emergence application, 9× the labeled application rate (5,040 g/ha, 4.5 lb/acre)) is given as “less than 10%”.
